Counter-ions that a name gives are not always drawn.
Key:
[1] = tested on: phospho-ERK in HCT-116 cells; test: HCT-116 cell pERK assay (AlphaScreen SureFire); assay type: cell-based; conditions: Homo sapiens; HCT-116 cells, B-Raf wild type, K-Ras mutation; 4 hours; read-out: IC50 reduction of phospho-ERK signal
Method: Examples of Formula I are tested against HCT-116 cells harboring wild type B-Raf and K-Ras mutation. The phospho-ERK activities are evaluated as described below.
HCT-116 cells (catalog #CCL-247) are obtained from the American Type Culture Collection (ATCC, Manassas, Va.). Briefly, cells are grown in McCoy's 5A supplemented with 10% characterized fetal bovine serum (Invitrogen, Carlsbad, Calif.), and 1% Penicillin/Streptomycin/L-Glutamine at 37 degrees Celsius, 5% CO2, and 95% humidity. Cells are allowed to expand until reaching 75-90% confluency at which point they are subcultured or harvested for assay use. HCT-116 cells suspended in complete media are added to 384-well tissue culture treated plates (3×10^5 cells/mL; 7,500 cells per well). The cells are incubated overnight at 37 degrees Celsius, 5% CO2, and 95% humidity. Next, test compound or DMSO diluted in complete media is added to the wells (0.25% final DMSO concentration). The plates are then incubated for 4 hours at 37 degrees Celsius, 5% CO2, and 95% humidity. Following compound incubation, the cells are lysed at 4° C. for 20 minutes with shaking Cell lysates are centrifuged and the supernatant is transferred to a new plate. An aliquot of each lysate is transferred to a white 384-well assay plate. Using the AlphaScreen SureFire pERK kit (Perkin-Elmer, Waltham, Mass.), an acceptor bead mixture is added to each well and incubated for 2 h at room temperature in the dark. A donor bead mixture is then added to each well and incubated for 2 h at room temperature in the dark. Plates are read using a Synergy2 plate reader (Biotek, Winooski, Vt.) in Plate Mode with Timing Control. Read: (F)1: excitation: 680/30 nm, emission: Plug. 2: Excitation: Plug, emission: 570/100 nm. Top mirror 635 nm. Data is analyzed using Prism software (Graphpad, San Diego, Calif.) to calculate IC50 values and Excel software (Microsoft, Redmond, Wash.) to calculate stimulation compared to control.

[2] = tested on: phospho-ERK in A375 (B-Raf V600E) xenograft; test: A375 mouse xenograft pharmacodynamic assay (tumor pERK by ELISA); assay type: in vivo, mice; conditions: 2 h post dose, vs vehicle, read-out: Measured pERK inhibition 2 h post dose; for inhibition in vivo at 20 mg/kg: A-375, 20 mg/kg oral
Method: To evaluate the in vivo pharmacodynamic (PD) effects of compounds of Formula I, an A375 (B-Raf V600E) xenograft model is employed. Briefly, 10×10^6 A375 tumor cells (ATCC) are prepared in a 1:1 matrigel mix (0.2 mL total volume) and implanted by subcutaneous injection in hind leg of nude female mice. A total of 4 mice each for each dosing group are employed. Treatment is initiated with oral administration (gavage) of test compound or vehicle (20% captisol, 25 mM phosphate, pH2.0) in 0.2 mL volume when average tumor size reaches approximately 300 mg. After a fixed time interval, the tumors are harvested and the phospho-ERK levels are measured by ELISA (Enzyme-linked immunosorbent assay). Treated groups are compared to the vehicle control group to calculate % inhibition.

A375res cells [3] = tested on: A375res cells
From the text: (§1) A vemurafenib-resistant cell line is generated by chronic treatment of the human melanoma cell line A375 (ATCC) harboring the B-Raf V600E mutation with increasing concentrations PLX4720.

A375res cells [4] = test: Proliferation assay in vemurafenib-resistant A375res melanoma cells; conditions: Homo sapiens, 72 h, read-out: absolute IC50 values
From the text: as §1

Compound	IC50 [1] [nM]	IC50 shift A375 to A375res (A375res cells [3])	IC50 (A375res cells [4]) [nM]	inhibition in vivo at 20 mg/kg [2] [%]	inhibition in vivo at 6 mg/kg ([2]; A-375, 6 mg/kg oral) [%]
CC(=O)Nc1cc2nc(C)c(-c3cc(NC(=O)NCCC(C)(C)C)c(F)cc3F)cc2cn1 [Example 105, N-(3-(5-(3-(3,3-dimethylbutyl)ureido)-2,4-difluorophenyl)-2-methyl-1,6-naphthyridin-7-yl)acetamide]				87	
CNc1cc2nc(C)c(-c3cc(NC(=O)NCCC(C)C)c(F)cc3C)cc2cn1 [Example 45, 1-(2-fluoro-4-methyl-5-(2-methyl-7-(methylamino)-1,6-naphthyridin-3-yl)phenyl)-3-isopentylurea]	2 to 96	0.5-4.9 fold	9 to 504		
CC(=O)Nc1cc2nc(C)c(-c3cc(NC(=O)NCCC(C)(C)C#N)c(F)cc3F)cc2cn1 [Example 43, N-(3-(5-(3-(3-cyano-3-methylbutyl)ureido)-2,4-difluorophenyl)-2-methyl-1,6-naphthyridin-7-yl)acetamide]				55	
CNc1cc2nc(C)c(-c3cc(NC(=O)NC4CCOC(C)(C)C4)c(F)cc3C)cc2cn1 (stereo not shown) [Example 20, 1-(2,2-dimethyltetrahydro-2H-pyran-4-yl)-3-(2-fluoro-4-methyl-5-(2-methyl-7-(methylamino)-1,6-naphthyridin-3-yl)phenyl)urea hydrochloride]	2 to 96	0.5-4.9 fold	9 to 504		
CNc1cc2nc(C)c(-c3cc(NC(=O)NC[C@@H](O)C(C)C)c(F)cc3C)cc2cn1 [Example 75, (S)-1-(2-fluoro-4-methyl-5-(2-methyl-7-(methylamino)-1,6-naphthyridin-3-yl)phenyl)-3-(2-hydroxy-3-methylbutyl)urea]				89	
CNc1cc2nc(C)c(-c3cc(NC(=O)NCCC(C)(C)OC)c(F)cc3F)cc2cn1 [Example 24, 1-(2,4-difluoro-5-(2-methyl-7 (methylamino)-1,6-naphthyridin-3-yl)phenyl)-3-(3-methoxy-3-methylbutyl)urea hydrochloride]	2 to 96		9 to 504	45	
CC(=O)Nc1cc2nc(C)c(-c3ccc(F)c(NC(=O)NCCC(C)(C)C)c3)cc2cn1 [Example 103, N-(3-(3-(3-(3,3-dimethylbutyl)ureido)-4-fluorophenyl)-2-methyl-1,6-naphthyridin-7-yl)acetamide]				90	
CNc1cc2nc(C)c(-c3cc(NC(=O)NCCC(C)(C)C)c(F)cc3C)cc2cn1 [Example 17, 1-(3,3-dimethylbutyl)-3-(2-fluoro-4-methyl-5-(2-methyl-7-(methylamino)-1,6-naphthyridin-3-yl)phenyl)urea]		0.5-4.9 fold	9 to 504	89	
CNc1cc2nc(C)c(-c3cc(NC(=O)NCC4CC(C)(C)C4)c(F)cc3F)cc2cn1 [Example 13, 1-(2,4-difluoro-5-(2-methyl-7-(methylamino)-1,6-naphthyridin-3-yl)phenyl)-3-((3,3-dimethylcyclobutyl)methyl)urea hydrochloride]	2 to 96	0.5-4.9 fold	9 to 504		
CNc1cc2nc(C)c(-c3cc(NC(=O)NCCC4(C(F)(F)F)CC4)c(F)cc3C)cc2cn1 [Example 23, 1-(2-fluoro-4-methyl-5-(2-methyl-7-(methylamino)-1,6-naphthyridin-3-yl)phenyl)-3-(2-(1-(trifluoromethyl)cyclopropyl)ethyl)urea hydrochloride]	2 to 96	0.5-4.9 fold	9 to 504		
CNc1cc2nc(C)c(-c3cc(NC(=O)NC4CC(C)(C)C4)c(F)cc3F)cc2cn1 [Example 78, 1-(2,4-difluoro-5-(2-methyl-7-(methylamino)-1,6-naphthyridin-3-yl)phenyl)-3-(3,3-dimethylcyclobutyl)urea hydrochloride]				68	

Continued, in another order:

IC50 [1] [nM]	IC50 shift A375 to A375res (A375res cells [3])	IC50 (A375res cells [4]) [nM]	Compound	inhibition in vivo at 20 mg/kg [2] [%]	inhibition in vivo at 6 mg/kg ([2]; A-375, 6 mg/kg oral) [%]
2 to 96	0.5-4.9 fold	9 to 504	CNc1cc2nc(C)c(-c3cc(NC(=O)N[C@H]4C[C@](C)(F)C4)c(F)cc3C)cc2cn1 [Example 77, 1-(3-fluoro-cis(3-methylcyclobutyl))-3-(2-fluoro-4-methyl-5-(2-methyl-7-(methylamino)-1,6-naphthyridin-3-yl)phenyl)urea]	96	
2 to 96			CNc1cc2nc(C)c(-c3cc(NC(=O)NC[C@@H](O)C(C)(C)C)c(F)cc3C)cc2cn1 [Example 56, (S)-1-(2-fluoro-4-methyl-5-(2-methyl-7-(methylamino)-1,6-naphthyridin-3-yl)phenyl)-3-(2-hydroxy-3,3-dimethylbutyl)urea]		75
2 to 96	0.5-4.9 fold	9 to 504	Cc1cc(F)c(NC(=O)NCCC(C)(C)F)cc1-c1cc2cnc(NC=O)cc2nc1C [Example 125, N-(3-(4-fluoro-5-(3-(3-fluoro-3-methylbutyl)ureido)-2-methylphenyl)-2-methyl-1,6-naphthyridin-7-yl)formamide hydrochloride]		
2 to 96	0.5-4.9 fold	9 to 504	CNc1cc2nc(C)c(-c3cc(NC(=O)NCCC4CC4)c(F)cc3C)cc2cn1 [Example 84, 1-(2-cyclopropylethyl)-3-(2-fluoro-4-methyl-5-(2-methyl-7-(methylamino)-1,6-naphthyridin-3-yl)phenyl)urea hydrochloride]		
2 to 96	0.5-4.9 fold	9 to 504	CNc1cc2nc(C)c(-c3cc(NC(=O)NCCC4(C)CC4)c(F)cc3F)cc2cn1 [Example 94, 1-(2,4-difluoro-5-(2-methyl-7-(methylamino)-1,6-naphthyridin-3-yl)phenyl)-3-(2-(1-methylcyclopropyl)ethyl)urea hydrochloride]		
2 to 96			Cc1cc(F)c(NC(=O)NCCC(C)(C)C)cc1-c1cc2cnc(NCCO)cc2nc1C [Example 64, 1-(3,3-dimethylbutyl)-3-(2-fluoro-5-(7-((2-hydroxyethyl)amino)-2-methyl-1,6-naphthyridin-3-yl)-4-methylphenyl)urea]	79	
2 to 96	0.5-4.9 fold	9 to 504	CNc1cc2nc(C)c(-c3cc(NC(=O)NC4CCC(F)(F)CC4)c(F)cc3F)cc2cn1 [Example 88, 1-(2,4-difluoro-5-(2-methyl-7-(methylamino)-1,6-naphthyridin-3-yl)phenyl)-3-(4,4-difluorocyclohexyl)urea hydrochloride]		
2 to 96	0.5-4.9 fold	9 to 504	CNc1cc2nc(C)c(-c3cc(NC(=O)NCC(O)C(C)(C)C)c(F)cc3C)cc2cn1 (stereo not shown) [Example 55, 1-(2-fluoro-4-methyl-5-(2-methyl-7-(methylamino)-1,6-naphthyridin-3-yl)phenyl)-3-(2-hydroxy-3,3-dimethylbutyl)urea]		
2 to 96	0.5-4.9 fold	9 to 504	CNc1cc2ncc(-c3cc(NC(=O)NCCC(C)(C)F)c(F)cc3C)cc2cn1 [Example 93, 1-(3-fluoro-3-methylbutyl)-3-(2-fluoro-4-methyl-5-(7-(methylamino)-1,6-naphthyridin-3-yl)phenyl)urea]		
2 to 96	0.5-4.9 fold	9 to 504	Cc1cc(F)c(NC(=O)NCCC2(C(F)(F)F)CC2)cc1-c1cc2cnc(N)cc2nc1C [Example 83, 1-(5-(7-amino-2-methyl-1,6-naphthyridin-3-yl)-2-fluoro-4-methylphenyl)-3-(2-(1-(trifluoromethyl)cyclopropyl)ethyl)urea hydrochloride]		

Source: patent US9187474B2, “Raf inhibitor compounds” (Deciphera Pharmaceuticals, LLC, priority 2012, dated 2015)
